For data set [1], the target named is T1, 5-hydroxytryptamine receptor 1A (Homo sapiens, UniProt P08908).
T1 sequence (P08908 whole entry): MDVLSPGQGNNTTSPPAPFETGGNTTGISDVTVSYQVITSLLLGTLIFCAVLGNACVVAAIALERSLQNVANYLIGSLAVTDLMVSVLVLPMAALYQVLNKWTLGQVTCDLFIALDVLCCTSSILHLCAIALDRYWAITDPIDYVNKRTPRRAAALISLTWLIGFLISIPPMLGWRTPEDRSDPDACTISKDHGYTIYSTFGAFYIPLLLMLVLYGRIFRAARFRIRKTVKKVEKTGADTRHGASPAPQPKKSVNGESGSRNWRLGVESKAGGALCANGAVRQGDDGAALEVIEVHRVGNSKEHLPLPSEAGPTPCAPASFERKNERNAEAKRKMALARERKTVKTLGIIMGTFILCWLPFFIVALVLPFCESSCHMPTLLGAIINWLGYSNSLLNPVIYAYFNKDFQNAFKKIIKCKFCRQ
Nature of the data set: biochemical.

The target of data set [2] is 5-hydroxytryptamine receptor 7 (Homo sapiens, UniProt P34969). Kind of data set: Displacement of [3H]-5-CT from human 5HT7 receptor expressed in HEK293 cells incubated for 1 hr by liquid scintillation counting method. It is filed as cell-based.
5-hydroxytryptamine receptor 7, sequence (P34969 whole entry): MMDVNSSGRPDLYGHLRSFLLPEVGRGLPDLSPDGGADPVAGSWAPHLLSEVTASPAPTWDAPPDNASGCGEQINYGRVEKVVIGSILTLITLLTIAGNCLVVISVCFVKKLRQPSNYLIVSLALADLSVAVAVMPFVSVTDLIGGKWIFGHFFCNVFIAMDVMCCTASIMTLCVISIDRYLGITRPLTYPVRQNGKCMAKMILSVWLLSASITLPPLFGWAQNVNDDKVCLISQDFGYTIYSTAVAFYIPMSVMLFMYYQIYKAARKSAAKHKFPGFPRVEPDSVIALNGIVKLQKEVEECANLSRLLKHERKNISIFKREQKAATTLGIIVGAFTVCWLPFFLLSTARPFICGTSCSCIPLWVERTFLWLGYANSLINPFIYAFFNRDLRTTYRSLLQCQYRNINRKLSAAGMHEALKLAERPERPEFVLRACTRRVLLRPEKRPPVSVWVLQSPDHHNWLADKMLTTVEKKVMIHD
Data set [3] relates to Mus musculus. Kind of data set: Induction of hypothermia in CD-1 mouse assessed as change in body temperature at 5 mg/kg, ip measured after 30 mins by thermometric method. It is filed as functional, organism-based.
Data set [4] has as its system Mus musculus. Nature of the data set: Induction of hypothermia in CD-1 mouse assessed as change in body temperature at 5 mg/kg, ip measured after 60 mins by thermometric method. It is filed as functional, organism-based.
The test system of data set [5] is Mus musculus. Nature of the data set: Induction of hypothermia in CD-1 mouse assessed as change in body temperature at 20 mg/kg, ip measured after 120 mins by thermometric method. It is filed as functional, organism-based.
Data set [6] is described as follows: Half life in human liver microsomes at 1 uM measured for 5 to 30 mins in presence of NADPH by LC-MS/MS analysis. It is filed as ADME, Microsome. On the technique in general: Liver microsomes are vesicles of endoplasmic reticulum, rich in cytochrome P450 enzymes.
The subject of data set [7] is Mus musculus. Kind of data set: Induction of hypothermia in CD-1 mouse assessed as change in body temperature at 20 mg/kg, ip measured after 30 mins by thermometric method. It is filed as functional, organism-based.
Data set [8] concerns Mus musculus. Kind of data set: Induction of hypothermia in CD-1 mouse assessed as change in body temperature at 15 mg/kg, ip pretreated for 60 mins with 5-HT1AR antagonist WAY100635 followed by compound treatment and measured after 30 mins by thermometric method (reference value: -0.1 to 0.4 deg C). It is filed as functional, organism-based.
Data set [9] deals with Mus musculus. Nature of the data set: Induction of hypothermia in CD-1 mouse assessed as change in body temperature at 20 mg/kg, ip measured after 90 mins by thermometric method. It is filed as functional, organism-based.
The test system of data set [10] is Mus musculus. Kind of data set: Induction of hypothermia in CD-1 mouse assessed as change in body temperature at 15 mg/kg, ip measured after 60 mins by thermometric method (reference value: -0.2 to 0.5 deg C). It is filed as functional, organism-based.
In data set [11] the test system is Mus musculus. Nature of the data set: Induction of hypothermia in CD-1 mouse assessed as change in body temperature at 15 mg/kg, ip measured after 30 mins by thermometric method (reference value: -0.2 to 0.4 deg C). It is filed as functional, organism-based.
The test system of data set [12] is Mus musculus. Nature of the data set: Induction of hypothermia in CD-1 mouse assessed as change in body temperature at 10 mg/kg, ip measured after 120 mins by thermometric method. It is filed as functional, organism-based.
Data set [13] deals with Mus musculus. Nature of the data set: Induction of hypothermia in CD-1 mouse assessed as change in body temperature at 5 mg/kg, ip measured after 120 mins by thermometric method. It is filed as functional, organism-based.
Data set [14] concerns Mus musculus. Nature of the data set: Induction of hypothermia in CD-1 mouse assessed as change in body temperature at 5 mg/kg, ip measured after 90 mins by thermometric method. It is filed as functional, organism-based.
Data set [15] relates to Mus musculus. Kind of data set: Induction of hypothermia in CD-1 mouse assessed as change in body temperature at 10 mg/kg, ip measured after 90 mins by thermometric method. It is filed as functional, organism-based.
For data set [16], the system named is Mus musculus. Nature of the data set: Induction of hypothermia in CD-1 mouse assessed as change in body temperature at 10 mg/kg, ip measured after 60 mins by thermometric method. It is filed as functional, organism-based.
For data set [17], the system named is Mus musculus. Nature of the data set: Induction of hypothermia in CD-1 mouse assessed as change in body temperature at 15 mg/kg, ip measured after 90 mins by thermometric method (reference value: -0.3 to 0.3 deg C). It is filed as functional, organism-based.
Data set [18] deals with Sodium-dependent serotonin transporter (Homo sapiens, UniProt P31645). Nature of the data set: Displacement of [3H]-imipramine from human serotonin transporter expressed in HEK293 cells membranes incubated for 30 mins by microbeta scintillation counting analysis. It is filed as cell membranes. On the technique in general: In a radioligand displacement assay an active substance lowers the binding of a labelled ligand.
Sodium-dependent serotonin transporter, sequence (P31645 whole entry): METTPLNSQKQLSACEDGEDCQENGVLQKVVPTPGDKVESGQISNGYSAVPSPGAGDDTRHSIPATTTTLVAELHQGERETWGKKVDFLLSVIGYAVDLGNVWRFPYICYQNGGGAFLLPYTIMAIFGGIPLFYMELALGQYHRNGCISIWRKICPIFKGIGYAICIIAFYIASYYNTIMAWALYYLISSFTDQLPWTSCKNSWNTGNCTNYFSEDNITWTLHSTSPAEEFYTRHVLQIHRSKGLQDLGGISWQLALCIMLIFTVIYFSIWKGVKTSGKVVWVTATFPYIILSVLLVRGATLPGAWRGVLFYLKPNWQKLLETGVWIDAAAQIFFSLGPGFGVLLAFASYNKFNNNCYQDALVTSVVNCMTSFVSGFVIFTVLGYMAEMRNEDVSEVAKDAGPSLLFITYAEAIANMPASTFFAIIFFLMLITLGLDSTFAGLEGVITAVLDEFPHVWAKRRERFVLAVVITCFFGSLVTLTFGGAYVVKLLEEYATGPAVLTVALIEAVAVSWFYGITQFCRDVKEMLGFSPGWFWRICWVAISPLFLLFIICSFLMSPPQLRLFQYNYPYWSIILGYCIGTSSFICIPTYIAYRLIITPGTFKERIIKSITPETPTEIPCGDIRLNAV

Data set [19] concerns the target 5-hydroxytryptamine receptor 6 (Homo sapiens, UniProt P50406). Nature of the data set: Displacement of [3H]-LSD from human 5-HT6 receptor expressed in HEK293 cells incubated for 1 hr by liquid scintillation counting method. It is filed as cell-based.
Data set [20] concerns Mus musculus. Kind of data set: Induction of hypothermia in CD-1 mouse assessed as change in body temperature at 15 mg/kg, ip pretreated for 30 mins with 5-HT1AR antagonist WAY100635 followed by compound treatment and measured after 30 mins by thermometric method (reference value: -0.1 to 0.1 deg C). It is filed as functional, organism-based.
Data set [21] concerns Mus musculus. Kind of data set: Induction of hypothermia in CD-1 mouse assessed as change in body temperature at 20 mg/kg, ip measured after 60 mins by thermometric method. It is filed as functional, organism-based.
Data set [22] relates to Mus musculus. Nature of the data set: Induction of hypothermia in CD-1 mouse assessed as change in body temperature at 15 mg/kg, ip measured after 120 mins by thermometric method (reference value: -0.1 to 0.3 deg C). It is filed as functional, organism-based.
Another data set concerns the target D(2) dopamine receptor (Homo sapiens, UniProt P14416). Kind of data set: Displacement of [3H]-raclopride from human D2L receptor expressed in HEK293 cells incubated for 1 hr by liquid scintillation counting method. It is filed as cell-based.
Data set [23] deals with Mus musculus. Nature of the data set: Induction of hypothermia in CD-1 mouse assessed as change in body temperature at 10 mg/kg, ip measured after 30 mins by thermometric method. It is filed as functional, organism-based.
Data set [24] deals with T2, 5-hydroxytryptamine receptor 2C (Homo sapiens, UniProt P28335).
T2 sequence (P28335 whole entry): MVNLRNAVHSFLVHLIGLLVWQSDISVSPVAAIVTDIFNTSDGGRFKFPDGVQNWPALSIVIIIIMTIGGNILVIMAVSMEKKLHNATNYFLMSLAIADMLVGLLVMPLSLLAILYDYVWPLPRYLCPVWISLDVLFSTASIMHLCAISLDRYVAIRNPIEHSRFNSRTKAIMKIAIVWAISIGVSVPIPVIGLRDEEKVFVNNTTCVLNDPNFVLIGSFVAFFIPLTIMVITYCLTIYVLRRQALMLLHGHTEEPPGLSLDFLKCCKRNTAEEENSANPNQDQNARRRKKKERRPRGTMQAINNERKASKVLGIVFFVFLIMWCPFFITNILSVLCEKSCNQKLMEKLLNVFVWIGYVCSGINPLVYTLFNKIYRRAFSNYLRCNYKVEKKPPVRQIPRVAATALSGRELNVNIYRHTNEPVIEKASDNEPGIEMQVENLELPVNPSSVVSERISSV
Nature of the data set: Binding affinity to 5-HT2CR (unknown origin).

Where a name gives a salt, the structure may show the parent alone.

D(2) dopamine receptor, sequence (P14416 whole entry): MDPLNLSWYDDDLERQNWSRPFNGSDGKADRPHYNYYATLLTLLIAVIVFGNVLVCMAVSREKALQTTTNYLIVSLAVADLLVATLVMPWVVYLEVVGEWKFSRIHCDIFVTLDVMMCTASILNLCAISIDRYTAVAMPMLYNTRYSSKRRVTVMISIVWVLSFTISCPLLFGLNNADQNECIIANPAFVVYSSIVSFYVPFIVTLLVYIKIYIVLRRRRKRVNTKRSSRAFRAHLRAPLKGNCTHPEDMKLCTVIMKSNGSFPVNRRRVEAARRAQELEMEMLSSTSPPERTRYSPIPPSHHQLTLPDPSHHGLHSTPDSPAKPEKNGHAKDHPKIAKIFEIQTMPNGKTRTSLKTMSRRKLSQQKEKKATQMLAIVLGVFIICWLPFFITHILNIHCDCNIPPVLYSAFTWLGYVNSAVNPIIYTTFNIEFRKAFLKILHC
5-hydroxytryptamine receptor 6, sequence (P50406 whole entry): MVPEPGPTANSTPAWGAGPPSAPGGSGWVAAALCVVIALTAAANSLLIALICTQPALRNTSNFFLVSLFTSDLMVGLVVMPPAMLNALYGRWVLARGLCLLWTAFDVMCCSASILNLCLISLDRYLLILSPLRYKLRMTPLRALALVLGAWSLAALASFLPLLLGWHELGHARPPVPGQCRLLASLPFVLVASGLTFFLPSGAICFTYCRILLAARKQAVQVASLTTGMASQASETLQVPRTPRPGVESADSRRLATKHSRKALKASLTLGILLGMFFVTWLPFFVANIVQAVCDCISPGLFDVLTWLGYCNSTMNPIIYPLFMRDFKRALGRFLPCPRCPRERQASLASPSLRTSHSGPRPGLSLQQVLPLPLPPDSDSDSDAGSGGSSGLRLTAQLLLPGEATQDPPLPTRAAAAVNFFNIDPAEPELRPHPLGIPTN

What is called Ki is a measure of affinity in units of concentration, obtained from inhibition or displacement. Higher therefore signals weaker binding. Broadly, the half-life is how long it takes for the measured level to halve. As for `COc1ccc2[nH]cc(C3CCN(CCCCN4C(=O)CC(c5c[nH]c6ccc(OC)cc56)C4=O)CC3)c2c1` (centres undefined), the Ki was 2.3 nM in [1]; 320 nM in [2]; 308 nM in data set [18]; 427 nM in [19]; 217 nM at D(2) dopamine receptor. The deltaT in the data set on Mus musculus [3] is 0.2 °C; in the data set on Mus musculus [4], 0.3 °C; in the data set on Mus musculus [5], -0.5 °C; with Mus musculus [7] it was -3.1 °C; with Mus musculus [8], 0 °C; with Mus musculus [9], -0.6 °C. Besides, the deltaT in the data set on Mus musculus [10] was 0.2 °C; with Mus musculus [11], -0.9 °C; in the data set with Mus musculus [12], 0.4 °C; in the data set on Mus musculus [13], 0.4 °C; in the data set with Mus musculus [14] it was 0.2 °C; in the data set on Mus musculus [15], 0.6 °C. Besides, the deltaT with Mus musculus [16] was 0.6 °C; in the data set on Mus musculus [17], 0.5 °C; with Mus musculus [20], 0.8 °C; in the data set on Mus musculus [21], -1.2 °C; in the data set on Mus musculus [22], 0.3 °C; in the data set with Mus musculus [23], -0.5 °C. The half-life at 1 µM in [6] came out at 9.7 min.
`O=C1CC(c2c[nH]c3ccc(F)cc23)C(=O)N1CCCCN1CCC(c2c[nH]c3ccccc23)CC1` (centres undefined): the Ki in [1] amounted to 13 nM; in [2], 50 nM; in [18] it was 51 nM; in data set [19], 29 nM; at D(2) dopamine receptor, 190 nM. In addition, the deltaT was -0.4 °C with Mus musculus [3]; -0.2 °C in the data set on Mus musculus [4]; -0.6 °C with Mus musculus [5]; -2.3 °C with Mus musculus [7]; 0.3 °C with Mus musculus [8]; -0.2 °C in the data set with Mus musculus [9]. In addition, the deltaT was -0.7 °C with Mus musculus [10]; -1.8 °C in the data set with Mus musculus [11]; -0.2 °C in the data set with Mus musculus [12]; -0.3 °C in the data set with Mus musculus [13]; -0.2 °C in the data set with Mus musculus [14]; 0 °C in the data set with Mus musculus [15]. In addition, the deltaT in the data set with Mus musculus [16] was 0.1 °C; with Mus musculus [17] it was -0.4 °C; with Mus musculus [20], 0.1 °C; in the data set with Mus musculus [21], -0.7 °C; in the data set with Mus musculus [22], -0.4 °C; with Mus musculus [23], -0.6 °C. In data set [6], the half-life at 1 µM came out at 10 min.
In turn, `CC[C@@H](CO)NC(=O)[C@@H]1C=C2c3cccc4c3c(cn4C)C[C@H]2N(C)C1` [METHYSERGIDE MALEATE] gave a Ki in [24] of 0.794 nM.

These data come from ChEMBL document CHEMBL4311986, “Synthesis and biological evaluation of new multi-target 3-(1H-indol-3-yl)pyrrolidine-2,5-dione derivatives with potential antidepressant effect” (Eur J Med Chem, 2019).
